# Test results: paper PMC12010322, “ReaxFF-Guided Optimization of VIRIP-Based HIV-1 Entry Inhibitors” (The Journal of Physical Chemistry. B, 2025)
# Entries after “also recorded” stand apart in the source; their conditions may differ. Bridge positions count the residues as written; N and C are the ends. Ends that are not written are not given here. Peptide text beside a SMILES is read from it.
# Tests used:
# [1] = system: HIV-1 CH042 (clade C transmitted-founder); conditions: TZM-bl cells, clade C CH042 TF HIV-1
# Method: (§1) Figure 3 Size optimization of VIR-148. (A) TZM-bl reporter cells were incubated with increasing concentrations of VIR-148, VIR-102, or the indicated internally truncated itVIRIP derivatives. Cells were subsequently infected with HIV-1 NL4-3, and beta-galactosidase activity was determined 3 days after infection. (B) Hemolytic effect of indicated compounds on human erythrocytes. Each tile represents the area under the curve (AUC) for hemolytic activity. Full hemolysis is represented by a Triton-X control. (C) Amino acid alignment of the FP regions (red) of HIV-1 CH042, CH077, SIVmac239 and HIV-2 ROD10. (D) TZM-bl cells were incubated with increasing concentrations of VIR-148 or soVIRIP and subsequently infected with the HIV-1 CH042 or CH077, SIVmac239 or HIV-2 ROD10. […] The contribution of each amino acid to the binding interaction is indicated by color saturation. (F) Time-resolved ReaxFF-based molecular dynamics simulation of the interaction between soVIRIP and the HIV-1 FP. The trajectories are shown for VIR-148 (blue) and soVIRIP (orange). (G) Correlation between the free energy contribution of each amino acid of soVIRIP with the corresponding amino acid in VIR-148, based on ReaxFF simulations.
# (§2) To determine infectious virus yield, 10,000 TZM-bl reporter cells/well were seeded in 96-well plates and infected with cell culture supernatants, under reduced 1% FCS conditions, in triplicates on the following day. Three days p.i., cells were lysed and β-galactosidase reporter gene expression was determined using the GalScreen Kit (Applied Bioscience) according to the manufacturer’s instructions with an Orion microplate luminometer (Berthold).
# (§3) 10,000 TZM-bl reporter cells were seeded in 96-well plates in 100 μL of supplemented DMEM. The following day, the medium was changed to reduced 1% FCS-supplemented DMEM, and serially diluted peptide was added to the cells. The cells were subsequently infected with 10 μL of infectivity-normalized virus stocks. At 3 days postinfection, the supernatant was removed, and β-galactosidase activity was measured as previously described.
# [2] = system: HIV-1 CH077 (clade B transmitted-founder); conditions: TZM-bl cells, clade B CH077 TF HIV-1
# Method: as §1, §2, §3
# zebrafish embryos = experiment: Zebrafish embryo toxicity; conditions: for toxicity in zebrafish embryos: embryos exposed from 24 hpf for 24 h, 60 embryos per group, two experiments, NRC-03 3 μM, abamectin 3.125 μM
# Method: For in vivo studies, wild-type zebrafish embryos (Danio rerio) were dechorionated at 24 h post fertilization (hpf) using digestion with 1 mg/mL Pronase (Sigma) in E3 medium ([…]). In a 96-well plate, 3 embryos per well were exposed for 24 h to 100 μL of E3 containing VIRIP peptides at the concentrations indicated in the figures. Two independent assays were performed, each with 10 × 3 embryos. The peptide solvent (DMSO), diluted in E3, was used as negative control at the same amount as introduced by the peptide stock. […] Abamectin at a concentration of 3.125 μM was used as positive control for neurotoxicity.[49] At 48 hpf (after 24 h of incubation) embryos were scored in a stereomicroscope for signs of cytotoxicity (lysis and/or necrosis), developmental toxicity (delay and/or malformations) or cardiotoxicity (heart edema and/or reduced or absent circulation). Each embryo was also touched with a needle and reduced or absent touch response (escape movements) was evaluated as signs of neurotoxicity if and only if no signs of acute toxicity were present in the same embryo. Embryos were categorized within each of these toxicity categories into several classes of severity.[35]
# HIV-1 NL4-3 = system: HIV-1 NL4-3
# From the text: To further define critical residues and to assess whether the loop structure is required for antiviral activity, we generated short peptides of six, seven or ten amino acids corresponding to the C- or N-termini of VIR-148, respectively. To determine their antiviral activity, we pretreated TZM-bl reporter cells with various concentrations of individual or mixed peptides and subsequently exposed them to the CXCR4-tropic HIV-1 NL4–3 strain. TZM-bl reporter cells are highly susceptible to HIV-1 infection and contain the β-galactosidase reporter gene under the control of the HIV-1 long terminal repeat.[34] Three days later, infection was quantified by β-galactosidase assay.
# as §2, §3
# HIV-2 ROD10 = experiment: TZM-bl infection inhibition, HIV-2 ROD10; format: cell-based; conditions: TZM-bl cells
# Method: (§4) Figure 3 Size optimization of VIR-148. (A) TZM-bl reporter cells were incubated with increasing concentrations of VIR-148, VIR-102, or the indicated internally truncated itVIRIP derivatives. Cells were subsequently infected with HIV-1 NL4-3, and beta-galactosidase activity was determined 3 days after infection. (B) Hemolytic effect of indicated compounds on human erythrocytes. Each tile represents the area under the curve (AUC) for hemolytic activity. Full hemolysis is represented by a Triton-X control. (C) Amino acid alignment of the FP regions (red) of HIV-1 CH042, CH077, SIVmac239 and HIV-2 ROD10. […]
# as §2
# (§5) 10,000 TZM-bl reporter cells were seeded in 96-well plates in 100 μL of supplemented DMEM. […] At 3 days postinfection, the supernatant was removed, and β-galactosidase activity was measured as previously described.
# SIVmac239 = experiment: TZM-bl infection inhibition, SIVmac239; format: cell-based, SIVmac; conditions: TZM-bl cells
# Method: as §4, §2, §5
Molecule,IC50 [1] [µM],IC50 [2] [µM],toxicity in zebrafish embryos (zebrafish embryos),IC50 (HIV-1 NL4-3; NL4-3) [µM],"antiviral activity (in words) (HIV-1 NL4-3; TZM-bl reporter cells, HIV-1 NL4-3, β-galactosidase 3 days postinfection)",higher antiviral activity compared to the original VIRIP (HIV-1 NL4-3; ratio of IC50 values),activity against HIV-2 ROD10 (HIV-2 ROD10),activity against SIVmac239 (SIVmac239),nontoxic concentration relative to IC50 against primary HIV-1 strains (zebrafish embryos; zebrafish embryos)
"CC[C@H](C)[C@H](NC(=O)[C@H](C)NC(=O)[C@H](CCC(=O)O)NC(=O)[C@@H](N)CC(C)C)C(=O)N1CCC[C@H]1C(=O)N[C@H]1CSSC[C@@H](C(=O)N[C@H](C(=O)N[C@@H](C)C(=O)N[C@@H](Cc2ccccc2)C(=O)N[C@@H](CC(N)=O)C(=O)N[C@@H](CCCCN)C(=O)N2CCC[C@H]2C(=O)N[C@@H](Cc2ccccc2)C(=O)N[C@H](C(=O)N[C@@H](Cc2ccccc2)C(=O)O)C(C)C)C(C)C)NC(=O)[C@@H]2CCCN2C(=O)[C@@H]2CCCN2C(=O)[C@H]([C@@H](C)CC)NC(=O)[C@H](CO)NC1=O [VIR-148, reference compound] (H-LEAIPCSIPPCVAFNKPFVF-OH; disulfide 6-11)",0.037,0.039,,,,,,,
"GRRKRKWLRRIGKGVKIIGG AALDHL-NH2 [NRC-03, reference compound]",,,exhibited the expected toxicities,,,,,,
LEAIPVAFVF [soVIRIP],0.037,0.039,did not display significant toxic effects; also recorded: nontoxic,0.12,maintained full antiviral activity,more than 100 fold,inactive,inactive,"about 2,500 fold"
abamectin [reference compound],,,exhibited the expected toxicities,,,,,,
